This passage reports IC50 results from patent US20060223846A1, “Aza-bridged-bicyclic amino acid derivatives as alpha4 integrin antagonists” (priority 2005, published 2006).

Assay [1] addresses T1, human α4β7 (Homo sapiens, UniProt P13612+P26010).
T1 construct: expressed in transfected cells
T1 sequence (P13612 34-1032): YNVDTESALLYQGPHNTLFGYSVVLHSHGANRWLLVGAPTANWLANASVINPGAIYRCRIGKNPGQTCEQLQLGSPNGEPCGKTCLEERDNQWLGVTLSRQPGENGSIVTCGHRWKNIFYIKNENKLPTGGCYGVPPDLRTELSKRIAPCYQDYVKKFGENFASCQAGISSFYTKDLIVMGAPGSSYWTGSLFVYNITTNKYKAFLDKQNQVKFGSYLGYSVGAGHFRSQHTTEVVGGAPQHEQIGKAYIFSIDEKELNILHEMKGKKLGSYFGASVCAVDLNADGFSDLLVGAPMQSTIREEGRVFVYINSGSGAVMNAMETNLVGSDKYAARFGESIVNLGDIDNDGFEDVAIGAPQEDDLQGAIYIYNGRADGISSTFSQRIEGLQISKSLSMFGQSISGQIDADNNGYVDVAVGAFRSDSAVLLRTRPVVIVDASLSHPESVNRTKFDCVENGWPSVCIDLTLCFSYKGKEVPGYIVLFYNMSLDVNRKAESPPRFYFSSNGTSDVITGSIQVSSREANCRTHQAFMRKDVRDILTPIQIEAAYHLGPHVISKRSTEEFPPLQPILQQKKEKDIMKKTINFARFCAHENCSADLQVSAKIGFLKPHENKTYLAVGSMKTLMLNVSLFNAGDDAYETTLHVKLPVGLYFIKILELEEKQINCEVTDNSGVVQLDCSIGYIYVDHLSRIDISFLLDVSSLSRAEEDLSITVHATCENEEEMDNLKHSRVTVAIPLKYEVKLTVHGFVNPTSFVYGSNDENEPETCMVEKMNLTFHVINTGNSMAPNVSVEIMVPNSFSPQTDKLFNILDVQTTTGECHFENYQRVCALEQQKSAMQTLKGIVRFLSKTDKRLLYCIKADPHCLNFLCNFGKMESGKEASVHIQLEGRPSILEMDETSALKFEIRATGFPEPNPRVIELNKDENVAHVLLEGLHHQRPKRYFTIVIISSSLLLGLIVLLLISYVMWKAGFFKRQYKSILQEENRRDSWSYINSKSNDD
T1 sequence (P26010 20-798): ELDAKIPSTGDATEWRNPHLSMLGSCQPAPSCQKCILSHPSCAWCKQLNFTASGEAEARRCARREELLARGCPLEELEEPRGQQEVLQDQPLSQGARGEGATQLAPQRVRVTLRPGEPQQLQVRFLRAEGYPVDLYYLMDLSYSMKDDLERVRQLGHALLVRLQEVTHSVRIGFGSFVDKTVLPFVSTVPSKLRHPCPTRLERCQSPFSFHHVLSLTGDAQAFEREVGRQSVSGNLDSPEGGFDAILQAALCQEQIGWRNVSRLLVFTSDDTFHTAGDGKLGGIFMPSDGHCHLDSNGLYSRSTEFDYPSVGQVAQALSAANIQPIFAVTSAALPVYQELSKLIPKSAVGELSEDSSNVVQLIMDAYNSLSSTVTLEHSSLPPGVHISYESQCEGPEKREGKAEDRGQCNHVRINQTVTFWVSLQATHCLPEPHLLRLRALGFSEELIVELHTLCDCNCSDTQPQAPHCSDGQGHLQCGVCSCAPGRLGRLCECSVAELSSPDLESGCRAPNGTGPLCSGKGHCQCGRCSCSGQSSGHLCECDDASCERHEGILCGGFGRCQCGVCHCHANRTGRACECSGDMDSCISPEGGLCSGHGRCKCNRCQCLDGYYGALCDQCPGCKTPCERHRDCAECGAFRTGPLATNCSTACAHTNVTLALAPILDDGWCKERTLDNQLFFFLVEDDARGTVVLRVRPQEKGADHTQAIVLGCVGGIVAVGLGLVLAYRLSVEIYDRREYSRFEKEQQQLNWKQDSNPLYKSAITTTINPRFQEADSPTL
Briefly: α4β7-K562 Cell Adhesion Assay (α4β7 Mediated Adhesion/VCAM-1). Format: cell-based. The settings on record: K562 cells expressing human α4β7 on recombinant hVCAM-1; read-out: α4β7 IC50. The method, then:
(§1) α4β7-K562 Cell Adhesion Assay (α4β7 Mediated Adhesion/VCAM-1) Immulon 96 well plates (Dynex) were coated with 100 μL recombinant hVCAM-1 at 4.0 μg/mL in 0.05 M NaCO3 buffer pH 9.0 overnight at 4° C. (R&D System). Plates were washed 3 times in PBS with 1% BSA and blocked for 1 h @ room temperature in this buffer. PBS was removed and compounds to be tested (50 μL) were added at 2× concentration. A stable cell line of K562 cells expressing human α4β7, (50 μL at 2×10^6/mL) labeled with 5 μM Calcein AM (Molecular Probes) for 1 h at 37° C., were added to each well and allowed to adhere for 1 h at room temperature. Plates were washed 3× in PBS+1% BSA and cells were lysed for 15 minutes in 100 μL of 1 M Tris pH 8.0 with 1% SDS. The plate was read at 485 nm excitation and 530 nm emission.

Assay [2] has as its target α4β1 (Homo sapiens, UniProt P05556+P13612). Briefly: Ramos Cell Adhesion Assay (α4β1 Mediated Adhesion/VCAM-1). Format: cell-based. Also on record: Ramos cells, (50 μL at 2×10^6/mL) labeled with 5 μM Calcein AM; endogenous in cells; host or cells: Ramos cells. The settings on record: Ramos cells on recombinant hVCAM-1; read-out: α4β1 IC50. The method, then: as §1, with “Ramos” for “α4β7-K562”, “α4β1” for “(α4β7”, “[…]” for “96”, “Systems).” for “System).”, “Ramos cells,” for “A stable cell line of K562 cells expressing human α4β7,”

Molecules are shown by their SMILES.

Sequence of α4β1 (P05556 21-798, one chain of several): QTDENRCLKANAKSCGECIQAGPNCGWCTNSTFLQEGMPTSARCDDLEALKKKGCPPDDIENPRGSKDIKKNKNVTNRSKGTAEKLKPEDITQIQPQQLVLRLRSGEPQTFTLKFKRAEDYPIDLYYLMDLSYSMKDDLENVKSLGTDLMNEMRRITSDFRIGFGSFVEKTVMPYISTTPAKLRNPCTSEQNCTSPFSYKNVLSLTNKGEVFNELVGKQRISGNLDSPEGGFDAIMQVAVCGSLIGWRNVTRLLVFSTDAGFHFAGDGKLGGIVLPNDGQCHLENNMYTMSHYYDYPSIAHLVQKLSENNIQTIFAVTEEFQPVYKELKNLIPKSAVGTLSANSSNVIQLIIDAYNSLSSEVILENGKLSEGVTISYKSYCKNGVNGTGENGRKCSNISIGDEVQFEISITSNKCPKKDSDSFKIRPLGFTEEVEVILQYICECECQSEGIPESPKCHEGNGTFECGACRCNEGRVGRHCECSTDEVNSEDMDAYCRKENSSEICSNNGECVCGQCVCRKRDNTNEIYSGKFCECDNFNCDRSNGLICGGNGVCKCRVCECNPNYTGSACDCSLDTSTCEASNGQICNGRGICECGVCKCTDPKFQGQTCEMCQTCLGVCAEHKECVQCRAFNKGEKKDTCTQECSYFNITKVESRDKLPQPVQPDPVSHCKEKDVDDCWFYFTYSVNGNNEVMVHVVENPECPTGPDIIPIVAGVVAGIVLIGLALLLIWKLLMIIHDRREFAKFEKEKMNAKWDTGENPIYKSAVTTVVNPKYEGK

Broadly, the IC50 is the concentration needed to halve the response being measured. On to `O=C(Nc1ccc(CC(NC(=O)C2C3CCC(CC3)N2C(=O)CCc2ccc(C(F)(F)F)cc2)C(=O)O)cc1)c1c(Cl)cncc1Cl` (stereo not shown) [Cpd 50], for which the IC50 is 75 nM in assay [1] and 6 nM in assay [2].

As for `O=C(Nc1ccc(CC(NC(=O)C2C3CCC(CC3)N2C(=O)CC2CCOCC2)C(=O)O)cc1)c1c(Cl)cncc1Cl` (stereo not shown) [Cpd 41], the IC50 in assay [1] is 30 nM; in assay [2], 11 nM.

Turning to `COc1ccccc1CC(=O)N1C2CCC(CC2)C1C(=O)NC(Cc1ccc(NC(=O)c2c(Cl)cncc2Cl)cc1)C(=O)O` (stereo not shown) [Cpd 29], the values for the IC50 in assay [1] and in assay [2] were 27 nM and 28 nM, respectively.

Consider `CC(C)(C)CC(=O)N1C2CCC(CC2)C1C(=O)NC(Cc1ccc(NC(=O)c2c(Cl)cncc2Cl)cc1)C(=O)O` (stereo not shown) [Cpd 27], for which the IC50 was 834 nM in assay [1] and 386 nM in assay [2].

For `O=C(Nc1ccc(CC(NC(=O)C2C3CCC(CC3)N2Cc2ccccc2)C(=O)O)cc1)c1c(Cl)cncc1Cl` (stereo not shown) [Cpd 18], the IC50 in assay [1] was 309 nM; in assay [2] it was 543 nM.

On to `O=C(Nc1ccc(CC(NC(=O)C2C3CCC(CC3)N2C(=O)Cc2cccnc2)C(=O)O)cc1)c1c(Cl)cncc1Cl` (stereo not shown) [Cpd 5], for which the IC50 in assay [1] is 62 nM; in assay [2] it was 20 nM.

With `COc1cccc(CC(=O)N2C3CCC(CC3)C2C(=O)NC(Cc2ccc(NC(=O)c3c(Cl)cncc3Cl)cc2)C(=O)O)c1` (stereo not shown) [Cpd 1], the IC50 is 93 nM in assay [1] and 156 nM in assay [2].

With `O=C(Nc1ccc(CC(NC(=O)C2C3CCC(CC3)N2C(=O)OCc2ccccc2)C(=O)O)cc1)c1c(Cl)cncc1Cl` (stereo not shown) [Cpd 64], the IC50 in assay [1] was 24 nM; in assay [2] it was 9 nM.

With `O=C(Nc1ccc(CC(NC(=O)C2C3CCC(CC3)N2C(=O)Nc2ccccc2)C(=O)O)cc1)c1c(Cl)cncc1Cl` (stereo not shown) [Cpd 20], the IC50 in assay [1] was 287 nM; in assay [2], 259 nM.

Take `Cc1ccnn1CC(=O)N1C2CCC(CC2)C1C(=O)NC(Cc1ccc(NC(=O)c2c(Cl)cncc2Cl)cc1)C(=O)O` (stereo not shown) [Cpd 15]: the IC50 in assay [1] was 39 nM; in assay [2] it was 69 nM.

On to `O=C(Nc1ccc(CC(NC(=O)C2C3CCC(CC3)N2C(=O)c2ccccc2C(F)(F)F)C(=O)O)cc1)c1c(Cl)cncc1Cl` (stereo not shown) [Cpd 12], for which the IC50 in assay [1] is 739 nM; in assay [2], 460 nM.

`O=C(Nc1ccc(CC(NC(=O)C2C3CCC(CC3)N2C(=O)Nc2ccc(Cl)cc2)C(=O)O)cc1)c1c(Cl)cncc1Cl` (stereo not shown) [Cpd 24]: the IC50 is 743 nM in assay [1] and 591 nM in assay [2].

As to `CC(C)CCC(=O)N1C2CCC(CC2)C1C(=O)NC(Cc1ccc(NC(=O)c2c(Cl)cncc2Cl)cc1)C(=O)O` (stereo not shown) [Cpd 38], the values for the IC50 in assay [1] and in assay [2] were 15 nM and 5 nM, respectively.

Turning to `COc1cc(CC(=O)N2C3CCC(CC3)C2C(=O)NC(Cc2ccc(NC(=O)c3c(Cl)cncc3Cl)cc2)C(=O)O)cc(OC)c1` (stereo not shown) [Cpd 31], the IC50 in assay [1] is 106 nM; in assay [2] it was 8 nM.

In the case of `O=C(Nc1ccc(CC(NC(=O)C2C3CCC(CC3)N2C(=O)c2c(Cl)cccc2Cl)C(=O)O)cc1)c1c(Cl)cncc1Cl` (stereo not shown) [Cpd 14], the IC50 in assay [1] and in assay [2] was above 5000 nM in each case.

Turning to `O=C(Nc1ccc(CC(NC(=O)C2C3CCC(CC3)N2C(=O)CCN2CCCCC2)C(=O)O)cc1)c1c(Cl)cncc1Cl` (stereo not shown) [Cpd 43], the IC50 was 86 nM in assay [1] and 5 nM in assay [2].

Regarding `O=C(Nc1ccc(CC(NC(=O)C2C3CCC(CC3)N2C(=O)c2ccccc2F)C(=O)O)cc1)c1c(Cl)cncc1Cl` (mixture of isomers) [Cpd 9], the IC50 in assay [1] was 151 nM; in assay [2], 436 nM.

Take `Cc1ccc(CCN2C3CCC(CC3)C2C(=O)NC(Cc2ccc(NC(=O)c3c(Cl)cncc3Cl)cc2)C(=O)O)cc1` (stereo not shown) [Cpd 58]: the figures for the IC50 in assay [1] and in assay [2] were 16 nM and 201 nM, respectively.

`O=C(Nc1ccc(CC(NC(=O)C2C3CCC(CC3)N2C(=O)NCc2ccccc2)C(=O)O)cc1)c1c(Cl)cncc1Cl` (stereo not shown) [Cpd 25]: the figures for the IC50 in assay [1] and in assay [2] were 379 nM and 72 nM, respectively.

On to `O=C(Nc1ccc(CC(NC(=O)C2C3CCC(CC3)N2C(=O)Cc2ccccn2)C(=O)O)cc1)c1c(Cl)cncc1Cl` (stereo not shown) [Cpd 4], for which the figures for the IC50 in assay [1] and in assay [2] were 32 nM and 25 nM, respectively.

Consider `O=C(Nc1ccc(CC(NC(=O)C2C3CCC(CC3)N2C(=O)CCCC2CCCCC2)C(=O)O)cc1)c1c(Cl)cncc1Cl` (stereo not shown) [Cpd 37], for which the values for the 50% inhibitory concentration (IC50) in assay [1] and in assay [2] were 254 nM and 41 nM, respectively.

Regarding `O=C(Nc1ccc(CC(NC(=O)C2C3CCC(CC3)N2C(=O)Cc2ccccc2C(F)(F)F)C(=O)O)cc1)c1c(Cl)cncc1Cl` (stereo not shown) [Cpd 2], the IC50 in assay [1] is 316 nM; in assay [2], 164 nM.

`O=C(Nc1ccc(CC(NC(=O)C2C3CCC(CC3)N2C(=O)Cc2ccncc2)C(=O)O)cc1)c1c(Cl)cncc1Cl` (stereo not shown) [Cpd 44]: the results for the IC50 in assay [1] and in assay [2] were 32 nM and 3 nM, respectively.

As to `O=C(Nc1ccc(CC(NC(=O)C2C3CCC(CC3)N2C(=O)C=Cc2ccc3c(c2)OCO3)C(=O)O)cc1)c1c(Cl)cncc1Cl` (stereo not shown) [Cpd 46], the IC50 in assay [1] was 476 nM; in assay [2] it was above 5000 nM.

`O=C(Nc1ccc(CC(NC(=O)C2C3CCC(CC3)N2Cc2ccc(Cl)s2)C(=O)O)cc1)c1c(Cl)cncc1Cl` (stereo not shown) [Cpd 19]: the IC50 in assay [1] was above 5000 nM; in assay [2] it was 2560 nM.

As for `O=C(Nc1ccc(CC(NC(=O)C2C3CCC(CC3)N2C(=O)CCc2cccnc2)C(=O)O)cc1)c1c(Cl)cncc1Cl` (stereo not shown) [Cpd 65], the results for the IC50 in assay [1] and in assay [2] were 10 nM and 3 nM, respectively.

With `COc1ccccc1C=CC(=O)N1C2CCC(CC2)C1C(=O)NC(Cc1ccc(NC(=O)c2c(Cl)cncc2Cl)cc1)C(=O)O` (stereo not shown) [Cpd 45], the IC50 is 36 nM in assay [1] and 3 nM in assay [2].

Take `CN(C)c1ccc(CC(=O)N2C3CCC(CC3)C2C(=O)NC(Cc2ccc(NC(=O)c3c(Cl)cncc3Cl)cc2)C(=O)O)cc1` (stereo not shown) [Cpd 56]: the IC50 in assay [1] was 23 nM; in assay [2], 2 nM.

Turning to `COc1cccc(CCC(=O)N2C3CCC(CC3)C2C(=O)NC(Cc2ccc(NC(=O)c3c(Cl)cncc3Cl)cc2)C(=O)O)c1` (stereo not shown) [Cpd 49], the IC50 is 9 nM in assay [1] and 1 nM in assay [2].
